Structures can show the parent of a compound that is named as a salt.
Legend:
[1] = target: T1, recombinant human NK1 receptors expressed in Chinese Hamster Ovary (CHO) cell membranes (Homo sapiens, UniProt P25103); experiment: NK1-receptor binding affinity, displacement of [3H]-substance P; conditions: average of at least two determinations, [3H]substance P displacement; for Ki: read-out: pki (negative logarithm of the inhibition constant Ki) (converted)
T1 construct: expressed in transfected cells; host or cells: Chinese Hamster Ovary (CHO) cells, membrane preparation
T1 sequence (P25103 whole entry): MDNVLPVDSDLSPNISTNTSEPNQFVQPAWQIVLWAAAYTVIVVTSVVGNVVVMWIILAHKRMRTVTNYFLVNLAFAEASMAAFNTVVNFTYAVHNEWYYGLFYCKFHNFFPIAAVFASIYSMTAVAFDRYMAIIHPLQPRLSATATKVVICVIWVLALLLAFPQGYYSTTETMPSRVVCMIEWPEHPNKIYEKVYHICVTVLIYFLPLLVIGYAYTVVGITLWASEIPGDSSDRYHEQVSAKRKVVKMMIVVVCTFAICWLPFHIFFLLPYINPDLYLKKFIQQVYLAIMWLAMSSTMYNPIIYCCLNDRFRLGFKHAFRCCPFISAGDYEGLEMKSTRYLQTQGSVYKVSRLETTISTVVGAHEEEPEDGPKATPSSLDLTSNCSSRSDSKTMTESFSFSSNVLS
Description: CHO cell membranes were prepared by using a modification of the method described by Dam T and Quirion R (Peptides, 7:855-864, 1986). Thus ligand binding was performed in 0.4 ml of 50 mM HEPES, pH 7.4, containing 3 mM MnCl2, 0.02% BSA, 0.5 nM [^3H]Substance P (30÷56 Ci/mmol, Amersham), a final membrane concentration of 25 μg of protein/ml, and the test compounds. The incubation proceeded at room temperature for 40 min.
The affinity of the compound of the invention for NK1 receptor was determined using the NK1-receptor binding affinity method measuring in vitro by the compounds' ability to displace [3H]—substance P (SP) from recombinant human NK1 receptors expressed in Chinese Hamster Ovary (CHO) cell membranes. The affinity values are expressed as negative logarithm of the inhibition constant (Ki) of displacer ligands (pKi).

[2] = target: T2, NK1 receptor (Meriones unguiculatus, UniProt Q5DUB1); experiment: gerbil foot tapping model (NK1 agonist icv); format: in vivo; conditions: read-out: ED50 (dose required to inhibit by 50% the tapping induced by the NK1 agonist), oral administration, four hours before NK1 agonist 3 pmol icv
T2 construct: from tissue; host or cells: living gerbil, central nervous system (NK1 agonist infused into the cerebral ventricles)
T2 sequence (Q5DUB1 whole entry, the tested form may be a part): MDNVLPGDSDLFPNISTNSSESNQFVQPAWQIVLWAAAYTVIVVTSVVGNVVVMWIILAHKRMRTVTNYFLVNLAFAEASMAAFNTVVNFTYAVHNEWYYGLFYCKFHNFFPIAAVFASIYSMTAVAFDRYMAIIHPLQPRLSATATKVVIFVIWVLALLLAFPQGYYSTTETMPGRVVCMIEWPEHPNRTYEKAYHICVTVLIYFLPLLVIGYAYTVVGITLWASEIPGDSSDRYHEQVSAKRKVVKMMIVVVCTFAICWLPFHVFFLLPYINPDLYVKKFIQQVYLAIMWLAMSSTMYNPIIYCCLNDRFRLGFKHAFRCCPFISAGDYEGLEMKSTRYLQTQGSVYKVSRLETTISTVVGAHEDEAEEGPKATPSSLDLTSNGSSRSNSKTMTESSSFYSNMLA
Description: The action of the compounds of the invention at the NK1 receptor may be determined by using conventional tests.
The ability of the compounds of the invention to penetrate the central nervous system and to bind at the nk1 receptor may be determined using the gerbill foot tapping model as described by Rupniak & Williams, Eur. Jour. of Pharmacol., 1994.
The compound was orally administered and four hours later an NK1 agonist (e.g. delta-Aminovaler^6[Pro^9,Me-Leu^10]-substance P (7-11)) (3 pmol in 5 μicv) was infused directly in the cerebral ventricules of the animals. The duration of hind foot tapping induced by the NK1 agonist (e.g. delta-Aminovalery^6[Pro^9,Me-Leu^10]-substance P (7-11)) was recorded continuously for 3 min using a stopclock. […] Alternatively the compounds may be administered subcutaneously or intraperitoneally.

Row | Ki [1] | Molecule | further results
1 | – | 2-(R)-(4-Fluoro-2-methyl-phenyl)-4-(S)-piperazin-1-yl-piperidine-1-carboxylic acid, [1-(R)-(3,5-bis-trifluoromethyl-phenyl)-ethyl]-methylamide hydrochloride [Example 9] | pki (negative logarithm of the inhibition constant Ki) [1]: 9.93
2 | 0.209 nM | Cc1cc(F)ccc1[C@H]1CC(N2CCN(C)CC2)CCN1C(=O)N(C)[C@H](C)c1cc(C(F)(F)F)cc(C(F)(F)F)c1 (mixture of isomers) [Example 8, 2-(R)-(4-Fluoro-2-methyl-phenyl)-4-(R,S)-(4-methyl-piperazin-1-yl)-piperidine-1-carboxylic acid, [1-(R)-(3,5-bis-trifluoromethyl-phenyl)-ethyl]-methylamide hydrochloride] | –
3 | 0.115 nM | Cc1cc(F)ccc1[C@H]1CC(N2CCN(C)CC2)CCN1C(=O)N(C)Cc1cc(C(F)(F)F)cc(C(F)(F)F)c1.Cl.Cl (mixture of isomers) [Example 10, 2-(R)-(4-Fluoro-2-methyl-phenyl)-4-(R,S)-(4-methyl-piperazin-1-yl)-piperidine-1-carboxylic acid, (3,5-bis-trifluoromethyl-benzyl)-methylamide dihydrochloride] | melting point: 208 to 209 °C
4 | – | CC(=O)N1CCN([C@H]2CCN(C(=O)N(C)[C@H](C)c3cc(C(F)(F)F)cc(C(F)(F)F)c3)[C@@H](c3ccc(F)cc3C)C2)CC1.Cl [Example 3, 4-(S)-(4-Acetyl-piperazin-1-yl)-2-(R)-(4-fluoro-2-methyl-phenyl)-piperidine-1-carboxylic acid, [1-(R)-(3,5-bis-trifluoromethyl-phenyl)-ethyl]-methylamide hydrochloride] | ED50 [2]: 0.05 mg/kg
5 | 0.708 nM | CC(=O)N1CCN([C@@H]2CCN(C(=O)N(C)Cc3cc(C(F)(F)F)cc(C(F)(F)F)c3)[C@@H](c3ccc(F)cc3C)C2)CC1 [Example 7a, 4-(R)-(4-Acetyl-piperazin-1-yl)-2-(R)-(4-fluoro-2-methyl-phenyl)-piperidine-1-carboxylic acid, (3,5-bis-trifluoromethyl-benzyl)-methylamide hydrochloride] | –
6 | 0.0741 nM | CC(=O)N1CCN([C@H]2CCN(C(=O)N(C)Cc3cc(C(F)(F)F)cc(C(F)(F)F)c3)[C@@H](c3ccc(F)cc3C)C2)CC1.Cl [Example 7b, 4-(S)-(4-Acetyl-piperazin-1-yl)-2-(R)-(4-fluoro-2-methyl-phenyl)-piperidine-1-carboxylic acid, (3,5-bis-trifluoromethyl-benzyl)-methylamide hydrochloride] | ED50 [2]: 0.19 mg/kg
7 | 0.123 nM | Cc1cc(F)ccc1[C@H]1C[C@@H](N2CCN(C(=O)C3CC3)CC2)CCN1C(=O)N(C)[C@H](C)c1cc(C(F)(F)F)cc(C(F)(F)F)c1.Cl [Example 12, 4-(S)-(4-Cyclopropanoyl-piperazin-1-yl)-2-(R)-(4-fluoro-2-methyl-phenyl)-piperidine-1-carboxylic acid, [1-(R)-(3,5-bis-trifluoromethyl-phenyl)-ethyl]-methylamide hydrochloride] | ED50 [2]: 0.27 mg/kg
8 | 0.1 nM | Cc1cc(F)ccc1[C@H]1C[C@@H](N2CCN(C(=O)C(C)C)CC2)CCN1C(=O)N(C)[C@H](C)c1cc(C(F)(F)F)cc(C(F)(F)F)c1 [Example 14, 4-(S)-[4-(2-Methyl-propanoyl)-piperazin-1-yl]-2-(R)-(4-fluoro-2-methyl-phenyl)-piperidine-1-carboxylic acid, [1-(R)-(3,5-bis-trifluoromethyl-phenyl)-ethyl]-methylamide hydrochloride] | –
9 | 0.0457 nM | Cc1cc(F)ccc1[C@H]1C[C@@H](N2CCN(C(=O)N(C)C)CC2)CCN1C(=O)N(C)Cc1cc(C(F)(F)F)cc(C(F)(F)F)c1 [Example 15, 4-(S)-[1-[(3,5-Bis-trifluoromethyl-benzyl)-methyl-carbamoyl]-2-(R)-(4-fluoro-2-methyl-phenyl)-piperidin-4-yl]-piperazine-1-carboxylic acid, dimethylamide hydrochloride] | –
10 | 0.0437 nM | CNC(=O)N1CCN([C@H]2CCN(C(=O)N(C)Cc3cc(C(F)(F)F)cc(C(F)(F)F)c3)[C@@H](c3ccc(F)cc3C)C2)CC1 [Example 16, 4-(S)-[1-[(3,5-Bis-trifluoromethyl-benzyl)-methyl-carbamoyl]-2-(R)-(4-fluoro-2-methyl-phenyl)-piperidin-4-yl]-1-carboxylic acid, methylamide hydrochloride] | –
11 | 0.417 nM | CC(=O)N1CCN([C@H]2CCN(C(=O)N(C)[C@H](C)c3cc(C(F)(F)F)cc(C(F)(F)F)c3)[C@@H](c3ccc(F)cc3)C2)CC1 [Example 19, 4-(S)-(4-Acetyl-piperazin-1-yl)-2-(R)-(4-fluoro-phenyl)-piperidine-1-carboxylic acid, [1-(R)-(3,5-bis-trifluoromethyl-phenyl)-ethyl]-methylamide hydrochloride] | –

From patent US7294630B2, “Piperazinyl piperidine tachykinin antagonists” (SmithKline Beecham Corporation, priority 2000, dated 2007)
